Inhibition and EC50 data for 15 molecules are collected here from patent US20260297094A1, “Tetracyclic Compounds as SMARCA2 and/or SMARCA4 Degraders” (Aurigene Oncology Limited, priority 2023, published 2026).

Counter-ions that a name gives are not always drawn.

Common to all, as to format: cell-based
One assay deals with T1, SMARCA2 (Homo sapiens, UniProt P51531).
T1 construct: endogenous in cells; host or cells: MV-4-11 (CRL-9591)
Description: SMARCA2 degradation in MV-4-11 cells by Western blot. The note with it: MV4-11, 16 h, at 100 nM, vs DMSO, read-out: Percent degradation SMARCA2. On the procedure:
(§1) Example-P3: Determination of SMARCA2 and SMARCA4 Degradation in MV-4-11 Cells by Western Blot
(§2) MV-4-11 (CRL-9591™) cells were plated in 6 well plates using complete Iscove's Modified Dulbecco's Medium. On the third day, compounds of present invention were added to cells from 10 mM stocks made in DMSO (Sigma Cat no. D2650). Each concentration of compound was tested with DMSO not exceeding final percentage of 0.1 in the cells. Cells were incubated with the compound for 16 hours followed by harvesting with 1×RIPA lysis buffer (Thermo Fischer, catalogue number #89900) containing protease inhibitor cocktail (Sigma catalogue number #P-8340). Equal amount of protein was loaded on SDS PAGE gel for electrophoresis. Western blot was carried out for detection of either SMARCA2 (Cell signalling technologies, catalogue number #11966) or SMARCA4 antibody (Cell signalling technologies, catalogue number #52251). Beta-Tubulin antibody (Cell signalling technologies, catalogue number #86298) was used as loading control. Percentage of SMARCA2 or SMARCA4 degradation was calculated using formula % Degradation=100−(normalized band intensity in treated sample/normalized band intensity in DMSO sample)*100. Here, “ND” refers to Not determined.

A further assay deals with SK-MEL-5 cells. Put plainly: Anti proliferative activity in SK-MEL-5 cells by Cell Titer Glo (Promega) assay. The note with it: Homo sapiens, retreatment on Day 4, terminated on day 8, CellTiter-Glo. On the procedure: Example-P1: Determination of Anti Proliferative Activity of Compounds in Cell Lines SK-MEL-5 by Cell Titer Glo® (Promega) Assay
Cells were seeded into 96-well plates and the plate was incubated in 37 degrees incubator overnight. The next day, compounds were diluted 3-fold to cover 9-point concentration range in DMSO. Intermediate plate dilution was prepared in media followed with compound treatment in cells. Retreatment of cells with compound dilutions was performed on Day 4 and assay was terminated on day 8 for SK-MEL-5 cells using CellTiter-Glo and the plate was kept on orbital shaker for 20 minutes at RT. Assay was terminated on day 6 for RERF-LC-A1 without a compound retreatment. Luminescence signal was recorded on VICTOR^3 instrument. Percent inhibition of proliferation was calculated at each concentration and plotted against the compound concentration. EC50 value was calculated using GraphPad® software.
For orientation: ATP-based viability assays read luminescence as a measure of living cells.

The target of a further assay is T2, SMARCA4 (Homo sapiens, UniProt P51532).
T2 construct: endogenous in cells; host or cells: MV-4-11 (CRL-9591)
T2 sequence (P51532 whole entry): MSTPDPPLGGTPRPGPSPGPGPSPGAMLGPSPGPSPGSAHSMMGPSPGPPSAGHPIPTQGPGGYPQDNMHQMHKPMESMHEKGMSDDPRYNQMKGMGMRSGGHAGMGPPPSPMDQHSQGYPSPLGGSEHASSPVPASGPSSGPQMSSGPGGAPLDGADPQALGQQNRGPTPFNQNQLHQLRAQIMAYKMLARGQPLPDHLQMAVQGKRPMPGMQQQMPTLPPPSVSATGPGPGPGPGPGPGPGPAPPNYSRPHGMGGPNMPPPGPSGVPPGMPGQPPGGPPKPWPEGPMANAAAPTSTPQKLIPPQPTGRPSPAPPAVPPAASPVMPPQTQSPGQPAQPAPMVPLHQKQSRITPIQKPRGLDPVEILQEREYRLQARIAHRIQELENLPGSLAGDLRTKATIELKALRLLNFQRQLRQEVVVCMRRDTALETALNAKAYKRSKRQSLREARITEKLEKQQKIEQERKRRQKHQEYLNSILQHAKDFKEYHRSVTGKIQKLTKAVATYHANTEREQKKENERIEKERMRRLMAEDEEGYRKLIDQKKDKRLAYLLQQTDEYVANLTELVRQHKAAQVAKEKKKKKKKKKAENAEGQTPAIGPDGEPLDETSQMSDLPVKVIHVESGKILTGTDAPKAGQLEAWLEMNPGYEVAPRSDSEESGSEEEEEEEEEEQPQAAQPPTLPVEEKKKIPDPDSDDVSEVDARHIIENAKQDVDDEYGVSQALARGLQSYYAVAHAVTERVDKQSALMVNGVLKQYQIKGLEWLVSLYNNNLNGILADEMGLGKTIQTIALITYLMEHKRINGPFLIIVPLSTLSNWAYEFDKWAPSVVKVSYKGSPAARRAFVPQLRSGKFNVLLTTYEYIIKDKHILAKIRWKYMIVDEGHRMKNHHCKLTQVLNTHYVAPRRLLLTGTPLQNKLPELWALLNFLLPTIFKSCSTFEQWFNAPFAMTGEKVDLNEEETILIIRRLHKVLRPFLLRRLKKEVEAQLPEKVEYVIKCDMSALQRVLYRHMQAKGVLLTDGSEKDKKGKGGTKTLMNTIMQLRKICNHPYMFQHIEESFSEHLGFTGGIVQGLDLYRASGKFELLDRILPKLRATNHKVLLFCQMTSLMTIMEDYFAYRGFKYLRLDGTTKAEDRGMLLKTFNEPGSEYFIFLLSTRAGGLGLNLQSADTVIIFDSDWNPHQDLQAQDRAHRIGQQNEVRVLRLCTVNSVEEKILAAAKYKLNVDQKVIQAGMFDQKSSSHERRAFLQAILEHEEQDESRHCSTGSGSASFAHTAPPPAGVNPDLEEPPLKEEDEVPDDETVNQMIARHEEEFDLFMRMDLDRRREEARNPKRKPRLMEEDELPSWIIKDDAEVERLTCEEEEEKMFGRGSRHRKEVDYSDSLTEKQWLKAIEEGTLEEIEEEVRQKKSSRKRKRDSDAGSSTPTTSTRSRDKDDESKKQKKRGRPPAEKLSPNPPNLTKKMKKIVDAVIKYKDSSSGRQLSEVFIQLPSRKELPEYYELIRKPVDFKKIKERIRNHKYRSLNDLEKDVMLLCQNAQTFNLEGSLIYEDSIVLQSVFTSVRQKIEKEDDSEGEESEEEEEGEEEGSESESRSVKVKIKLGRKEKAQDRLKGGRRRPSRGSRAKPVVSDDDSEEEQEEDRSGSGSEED
Description: SMARCA4 degradation in MV-4-11 cells by Western blot. The note with it: MV4-11, at 100 nM, 16 hours, vs DMSO, read-out: Percent degradation SMARCA4. As to the method:
as §1, §2

The subject of another assay is MV-4-11 cells. Put plainly: Anti proliferative activity in MV-4-11 cells by Cell Titer Glo (Promega) assay. The note with it: Homo sapiens, MV4-11, 72 h, 3 days, CellTiter-Glo. As to the method: Example-P2: Determination of Anti Proliferative Activity of Compounds in Cell Lines MV-4-11 by Cell Titer Glo® (Promega) Assay
MV-4-11 (CRL-9591™) cells were seeded in 96 well plate flat black clear bottom plates (Corning, Cat. No 3904) using complete DMEM Medium. Next day, selected compounds of the present invention were added to cells from 10 mM stocks made in DMSO (Sigma Cat no. D2650). Each concentration of compound was tested in triplicate with DMSO concentration at a final percentage not exceeding 0.3 in the cells. After the incubation of MV-4-11 cells with compound for 3 days; assay was terminated using 100 μl of CellTiter Glo® reagent (Promega, Cat. no G7572). CellTiter-Glo® Luminescent reagent determines the number of viable cells based on quantitation of ATP present which is an indicator of cell number and metabolic activity. Luminescence readings were taken in Victor-5 instrument. Percent inhibition of proliferation was calculated using formula, % inhibition=100−(luminescence value of test/luminescence value of DMSO control)*100. DMSO control (0%)=Cells in complete media with DMSO; blank=Media alone containing DMSO. EC50 was calculated using graph pad prism software.

T1 sequence (P51531 whole entry): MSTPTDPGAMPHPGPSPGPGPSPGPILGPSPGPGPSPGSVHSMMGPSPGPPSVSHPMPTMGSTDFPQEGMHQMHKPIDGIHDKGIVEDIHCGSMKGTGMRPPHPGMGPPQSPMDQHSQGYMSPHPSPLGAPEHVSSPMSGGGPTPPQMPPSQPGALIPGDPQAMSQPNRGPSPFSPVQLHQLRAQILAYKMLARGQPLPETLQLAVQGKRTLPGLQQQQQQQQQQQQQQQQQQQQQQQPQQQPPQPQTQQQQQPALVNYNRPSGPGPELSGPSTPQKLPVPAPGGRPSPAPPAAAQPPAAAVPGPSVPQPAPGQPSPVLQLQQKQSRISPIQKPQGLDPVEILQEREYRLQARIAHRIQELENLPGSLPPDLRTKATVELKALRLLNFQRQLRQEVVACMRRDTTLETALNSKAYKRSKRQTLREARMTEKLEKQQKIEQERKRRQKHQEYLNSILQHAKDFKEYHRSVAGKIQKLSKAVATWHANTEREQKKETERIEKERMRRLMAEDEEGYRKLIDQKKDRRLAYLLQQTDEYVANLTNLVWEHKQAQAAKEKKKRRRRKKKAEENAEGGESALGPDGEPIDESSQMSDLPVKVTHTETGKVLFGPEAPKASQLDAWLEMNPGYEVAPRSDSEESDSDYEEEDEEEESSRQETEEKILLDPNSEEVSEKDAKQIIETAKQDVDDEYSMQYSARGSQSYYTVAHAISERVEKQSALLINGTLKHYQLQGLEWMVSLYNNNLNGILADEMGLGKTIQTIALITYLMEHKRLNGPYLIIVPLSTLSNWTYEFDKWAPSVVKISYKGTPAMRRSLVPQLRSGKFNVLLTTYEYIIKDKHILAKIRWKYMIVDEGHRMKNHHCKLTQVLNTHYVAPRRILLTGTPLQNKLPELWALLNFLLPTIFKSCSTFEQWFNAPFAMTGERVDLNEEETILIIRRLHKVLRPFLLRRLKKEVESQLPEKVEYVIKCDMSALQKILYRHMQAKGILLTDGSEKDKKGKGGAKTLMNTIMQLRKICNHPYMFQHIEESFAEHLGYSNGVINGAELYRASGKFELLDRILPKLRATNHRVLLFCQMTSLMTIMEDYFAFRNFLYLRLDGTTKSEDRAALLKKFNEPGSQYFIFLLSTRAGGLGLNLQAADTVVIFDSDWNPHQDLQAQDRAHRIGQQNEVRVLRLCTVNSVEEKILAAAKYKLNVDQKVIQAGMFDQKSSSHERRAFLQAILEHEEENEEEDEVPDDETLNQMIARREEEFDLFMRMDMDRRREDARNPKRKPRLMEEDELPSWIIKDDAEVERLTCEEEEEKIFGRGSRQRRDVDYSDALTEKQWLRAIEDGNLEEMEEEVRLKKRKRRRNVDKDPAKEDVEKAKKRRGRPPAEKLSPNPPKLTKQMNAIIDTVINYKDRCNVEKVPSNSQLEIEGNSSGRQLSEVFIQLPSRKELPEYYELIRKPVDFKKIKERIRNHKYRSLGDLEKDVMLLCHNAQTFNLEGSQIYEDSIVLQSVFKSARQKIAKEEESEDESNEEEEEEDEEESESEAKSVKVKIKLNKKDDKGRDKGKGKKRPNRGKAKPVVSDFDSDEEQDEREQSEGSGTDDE

In general, EC50 refers to the concentration that produces a half-maximal response. Higher therefore signals lower potency in that assay. In the case of `O=C1CCC(N2Cc3cc(C4CCN(C5CCN(c6ccc7c(c6)n(C6CCCC6)c6nc(=O)c8c(Br)cccc8n76)CC5)CC4)ccc3C2=O)C(=O)N1` (centres unmarked) [Compound 1, 3-(5-(1′-(4-Bromo-7-cyclopentyl-5-oxo-5,7-dihydrobenzo[4,5]imidazo[1,2-a]quinazolin-9-yl)-[1,4′-bipiperidin]-4-yl)-1-oxoisoindolin-2-yl)piperidine-2,6-dione], the inhibition at 0.1 µM on SMARCA2 came out at 100%; at SMARCA4, 98%. Further, the EC50 in the assay with SK-MEL-5 cells and with MV-4-11 cells was less than 10 nM each time.

`O=C1CCC(Oc2ccc(C3CCN(C4CCN(c5ccc6c(c5)n(C5CCCC5)c5nc(=O)c7c(Br)cccc7n65)CC4)CC3)cc2)C(=O)N1` (centres unmarked) [Compound 2, 3-(4-(1′-(4-bromo-7-cyclopentyl-5-oxo-5,7-dihydrobenzo[4,5]imidazo[1,2-a]quinazolin-9-yl)-[1,4′-bipiperidin]-4-yl)phenoxy)piperidine-2,6-dione-TFA salt]: the inhibition at 0.1 µM on SMARCA2 and on SMARCA4 was 100% each time. Moreover, the EC50 with SK-MEL-5 cells and in the assay with MV-4-11 cells was less than 10 nM throughout.

`O=C1CCC(Nc2ccc(C3CCN(C4CCN(c5ccc6c(c5)n(C5CCCC5)c5nc(=O)c7c(Br)cccc7n65)CC4)CC3)c(F)c2)C(=O)N1` (centres unmarked) [Compound 3, 3-((4-(1′-(4-bromo-7-cyclopentyl-5-oxo-5,7-dihydrobenzo[4,5]imidazo[1,2-a]quinazolin-9-yl)-[1,4′-bipiperidin]-4-yl)-3-fluorophenyl)amino)piperidine-2,6-dione]: the results for the inhibition at 0.1 µM on SMARCA2 and on SMARCA4 were 100% and 99%, respectively. The EC50 in the assay on SK-MEL-5 cells and with MV-4-11 cells was less than 10 nM throughout.

Turning to `O=C1CCC(c2ccc(C3CCN(C4CCN(c5ccc6c(c5)n(C5CCCC5)c5nc(=O)c7c(Br)cccc7n65)CC4)CC3)cc2)C(=O)N1` (centres unmarked) [Compound 4, 3-(4-(1′-(4-bromo-7-cyclopentyl-5-oxo-5,7-dihydrobenzo[4,5]imidazo[1,2-a]quinazolin-9-yl)-[1,4′-bipiperidin]-4-yl)phenyl)piperidine-2,6-dione], the inhibition at 0.1 µM came to 90% at SMARCA2 and 97% at SMARCA4. Further, the EC50 with SK-MEL-5 cells and with MV-4-11 cells was less than 10 nM in each case.

As to `Cn1c2cc(N3CCC(N4CCN(c5ccc(NC6CCC(=O)NC6=O)cc5F)CC4)CC3)ccc2n2c3cccc(N)c3c(=O)nc12` (centres unmarked) [Compound 40, 3-((4-(4-(1-(4-amino-7-methyl-5-oxo-5,7-dihydrobenzo[4,5]imidazo[1,2-a]quinazolin-9-yl)piperidin-4-yl)piperazin-1-yl)-3-fluorophenyl)amino)piperidine-2,6-dione], the inhibition at 0.1 µM on SMARCA2 was determined as 48%. Moreover, the EC50 in the assay on SK-MEL-5 cells and with MV-4-11 cells was more than 100 nM throughout.

Take `Cn1nc(N2CCC(=O)NC2=O)c2cc(F)c(N3CCN(C4CCN(c5ccc6c(c5)n(C)c5nc(=O)c7c(N)cccc7n65)CC4)CC3)cc21` [Compound 41, 1-(6-(4-(1-(4-amino-7-methyl-5-oxo-5,7-dihydrobenzo[4,5]imidazo[1,2-a]quinazolin-9-yl)piperidin-4-yl)piperazin-1-yl)-5-fluoro-1-methyl-1H-indazol-3-yl)dihydropyrimidine-2,4(1H,3H)-dione]: the EC50 in the assay on SK-MEL-5 cells and in the assay with MV-4-11 cells was more than 100 nM in each case.

Consider `Cn1c2cc(N3CCC(N4CCN(c5ccc6c(c5)CN(C5CCC(=O)NC5=O)C6=O)CC4)CC3)ccc2n2c3cccc(N)c3c(=O)nc12` (centres unmarked) [Compound 42, 3-(5-(4-(1-(4-amino-7-methyl-5-oxo-5,7-dihydrobenzo[4,5]imidazo[1,2-a]quinazolin-9-yl)piperidin-4-yl)piperazin-1-yl)-1-oxoisoindolin-2-yl)piperidine-2,6-dione], for which the EC50 in the assay with SK-MEL-5 cells and in the assay on MV-4-11 cells was more than 100 nM in each case.

As for `Cn1c2cc(N3CCN(CC4CCN(c5ccc6c(c5)CN(C5CCC(=O)NC5=O)C6=O)CC4)CC3)ccc2n2c3cccc(N)c3c(=O)nc12` (centres unmarked) [Compound 43, 3-(5-(4-((4-(4-amino-7-methyl-5-oxo-5,7-dihydrobenzo[4,5]imidazo[1,2-a]quinazolin-9-yl)piperazin-1-yl)methyl)piperidin-1-yl)-1-oxoisoindolin-2-yl)piperidine-2,6-dione], the EC50 with SK-MEL-5 cells and with MV-4-11 cells was more than 100 nM each time.

`CC(C)n1c2cc(N3CCC(N4CCN(c5ccc(C6CCC(=O)NC6=O)cc5)CC4)CC3)ccc2n2c3cccc(N)c3c(=O)nc12` (centres unmarked) [Compound 44, 3-(4-(4-(1-(4-amino-7-isopropyl-5-oxo-5,7-dihydrobenzo[4,5]imidazo[1,2-a]quinazolin-9-yl)piperidin-4-yl)piperazin-1-yl)phenyl)piperidine-2,6-dione]: the inhibition at 0.1 µM at SMARCA2 turned out to be 16%. Also, the EC50 in the assay on SK-MEL-5 cells and in the assay with MV-4-11 cells was more than 100 nM in each case.

In the case of `Cn1c2cc(N3CCN(C4CN(c5ccc6c(c5)C(=O)N(C5CCC(=O)NC5=O)C6=O)C4)CC3)ccc2n2c3cccc(N)c3c(=O)nc12` (centres unmarked) [Compound 45, 5-(3-(4-(4-amino-7-methyl-5-oxo-5,7-dihydrobenzo[4,5]imidazo[1,2-a]quinazolin-9-yl)piperazin-1-yl)azetidin-1-yl)-2-(2,6-dioxopiperidin-3-yl)isoindoline-1,3-dione], on SMARCA2, the inhibition at 0.1 µM worked out at 21%. For the same molecule, the EC50 with SK-MEL-5 cells and with MV-4-11 cells was more than 100 nM each time.

Consider `Cn1c2cc(N3CCC(N4CCN(c5ccc(NC6CCC(=O)NC6=O)cc5F)CC4)CC3)ccc2n2c3cccc(Cl)c3c(=O)nc12` (centres unmarked) [Compound 46, 3-((4-(4-(1-(4-chloro-7-methyl-5-oxo-5,7-dihydrobenzo[4,5]imidazo[1,2-a]quinazolin-9-yl)piperidin-4-yl)piperazin-1-yl)-3-fluorophenyl)amino)piperidine-2,6-dione], for which the EC50 in the assay with SK-MEL-5 cells was less than 10 nM; in the assay on MV-4-11 cells it was more than 100 nM.

Consider `CC(C)n1c2cc(N3CCC(N4CCN(c5ccc(NC6CCC(=O)NC6=O)cc5F)CC4)CC3)ccc2n2c3cccc(Cl)c3c(=O)nc12` (centres unmarked) [Compound 47, 3-((4-(4-(1-(4-chloro-7-isopropyl-5-oxo-5,7-dihydrobenzo[4,5]imidazo[1,2-a]quinazolin-9-yl)piperidin-4-yl)piperazin-1-yl)-3-fluorophenyl)amino)piperidine-2,6-dione], for which the EC50 with SK-MEL-5 cells is less than 10 nM; with MV-4-11 cells, more than 100 nM.

`CC(C)n1c2cc(N3CCC(N4CCN(c5ccc6c(c5)CN(C5CCC(=O)NC5=O)C6=O)CC4)CC3)ccc2n2c3cccc(Cl)c3c(=O)nc12` (centres unmarked) [Compound 48, 3-(5-(4-(1-(4-chloro-7-isopropyl-5-oxo-5,7-dihydrobenzo[4,5]imidazo[1,2-a]quinazolin-9-yl)piperidin-4-yl)piperazin-1-yl)-1-oxoisoindolin-2-yl)piperidine-2,6-dione]: the EC50 with SK-MEL-5 cells was less than 10 nM; in the assay on MV-4-11 cells, more than 100 nM.

As for `Cn1c2cc(-c3ccc(N4CCN(c5ccc(NC6CCC(=O)NC6=O)cc5F)CC4)cc3)ccc2n2c3cccc(N)c3c(=O)nc12` (centres unmarked) [Compound 49, 3-((4-(4-(4-(4-amino-7-methyl-5-oxo-5,7-dihydrobenzo[4,5]imidazo[1,2-a]quinazolin-9-yl)phenyl)piperazin-1-yl)-3-fluorophenyl)amino)piperidine-2,6-dione], the EC50 in the assay on SK-MEL-5 cells and in the assay with MV-4-11 cells was more than 100 nM each time.

As for `CC(C)n1c2cc(-c3ccc(N4CCN(c5ccc(NC6CCC(=O)NC6=O)cc5F)CC4)cc3)ccc2n2c3cccc(Cl)c3c(=O)nc12` (centres unmarked) [Compound 50, 3-((4-(4-(4-(4-chloro-7-isopropyl-5-oxo-5,7-dihydrobenzo[4,5]imidazo[1,2-a]quinazolin-9-yl)phenyl)piperazin-1-yl)-3-fluorophenyl)amino)piperidine-2,6-dione.TFA], the EC50 with SK-MEL-5 cells and in the assay with MV-4-11 cells was more than 100 nM each time.
